Among the test systems are BT-549; CAKI-1; HCC 2998; HL-60; HOP-92; HT-29; IGROV-1; KM12; M14; MCF7; Malme-3M; OVCAR-3; OVCAR-4; PC-3; RPMI-8226; RXF 393; SK-OV-3; U-251; UACC-257; UO-31.
Assay in all cases: NCI anticancer screen, dose series, 48 h

From ChEMBL document CHEMBL1201862, “PubChem BioAssay data set” (2004) come the findings set out here.

The structures appear in SMILES notation.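 Results reflect a 48-hour exposure of cells in 96-well plates to compound at five concentrations. Here, GI50 denotes the concentration required for 50% inhibition of growth.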 Activity calls are given as the source filed them. No stated cut-off is given here; in the data, active = GI50 up to about 1.1 µM and inactive = higher.

Take `OC(C1=C/C(=C\c2ccncc2)c2ccccc21)c1ccncc1` (stereo not given): the GI50 in the assay on BT-549 is 19 µM (inactive); in the assay with CAKI-1, 7.83 µM (inactive); in the assay with HCC 2998, 8.39 µM (inactive); in the assay with HL-60, 1.66 µM (inactive); with HOP-92, 13.6 µM (inactive); in the assay with HT-29 it was 11.8 µM (inactive). For the same compound, the GI50 with IGROV-1 is 14.4 µM (inactive); with KM12 it was 15.6 µM (inactive); in the assay on M14 it was 12.4 µM (inactive); in the assay on MCF7, 9.86 µM (inactive); in the assay with Malme-3M, 15.1 µM (inactive); with OVCAR-3, 11.1 µM (inactive). Further, the GI50 is 12.4 µM (inactive) in the assay with OVCAR-4; 10.8 µM (inactive) with PC-3; 2.37 µM (inactive) in the assay on RPMI-8226; 14 µM (inactive) with RXF 393; 13.8 µM (inactive) in the assay with SK-OV-3; 14.7 µM (inactive) in the assay with U-251. The GI50 is 6.34 µM (inactive) in the assay with UACC-257 and 8.99 µM (inactive) with UO-31.

In the case of `COc1cc2c(/C=C3/C(=O)N(C)c4ccc(O)cc43)c(Cl)[nH]c2cc1C`, the GI50 is 0.811 µM (active) with BT-549; 0.394 µM (active) with CAKI-1; 0.373 µM (active) in the assay on HCC 2998; 0.281 µM (active) with HL-60; 17.2 µM (inactive) in the assay on HOP-92; 0.401 µM (active) with HT-29. The GI50 was 0.733 µM (active) in the assay on IGROV-1; 0.356 µM (active) in the assay on KM12; 0.238 µM (active) in the assay on M14; 0.502 µM (active) with MCF7; 0.179 µM (active) in the assay with Malme-3M; 0.246 µM (active) with OVCAR-3. Also, the GI50 was 1.8 µM (inactive) in the assay with OVCAR-4; 1.38 µM (inactive) with PC-3; 0.35 µM (active) with RPMI-8226; 0.475 µM (active) with RXF 393; 0.326 µM (active) in the assay with SK-OV-3; 0.402 µM (active) with U-251. In addition, the GI50 in the assay on UACC-257 was 2.25 µM (inactive); with UO-31, 1.64 µM (inactive).

Turning to `CC(C)(CN1CCCCC1)C(=O)CC(SCCS(=O)(=O)O)c1ccc(Cl)c(Cl)c1` (stereo not given), the GI50 in the assay with BT-549 was 2.9 µM (inactive); in the assay with CAKI-1 it was 2.97 µM (inactive); in the assay with HCC 2998 it was 13 µM (inactive); in the assay on HL-60 it was 3.46 µM (inactive); in the assay with HOP-92, 1.76 µM (inactive); in the assay on HT-29 it was 3.08 µM (inactive). Moreover, the GI50 in the assay with IGROV-1 is 4.4 µM (inactive); with KM12 it was 5.71 µM (inactive); in the assay on M14 it was 1.92 µM (inactive); in the assay with MCF7, 3.46 µM (inactive); in the assay on Malme-3M, 4.1 µM (inactive); with OVCAR-3, 2.37 µM (inactive). For the same compound, the GI50 in the assay on OVCAR-4 is 3.52 µM (inactive); in the assay on PC-3, 4.94 µM (inactive); in the assay with RPMI-8226, 4.01 µM (inactive); in the assay on RXF 393, 3.16 µM (inactive); in the assay with SK-OV-3, 29.7 µM (inactive); in the assay on U-251, 7.13 µM (inactive). Further, the figures for the GI50 with UACC-257 and in the assay on UO-31 were 5.94 µM (inactive) and 4.91 µM (inactive), respectively.

Turning to `Cc1c2c(OCCN3CCCCC3)nn(C)c(=O)c2c(C)n1-c1ccccc1`, the GI50 in the assay on BT-549 is 44.4 µM (inactive); in the assay on CAKI-1, 32.9 µM (inactive); in the assay on HCC 2998 it was 28.1 µM (inactive); with HL-60, 31 µM (inactive); in the assay on HOP-92, 58.9 µM (inactive); with HT-29, 30.9 µM (inactive). For the same compound, the GI50 with IGROV-1 is 70.5 µM (inactive); in the assay with KM12 it was 32.7 µM (inactive); in the assay with M14, 18.5 µM (inactive); with MCF7, 25.5 µM (inactive); in the assay on Malme-3M it was 19.1 µM (inactive); in the assay on OVCAR-3 it was 77.6 µM (inactive). The GI50 was 63.8 µM (inactive) with OVCAR-4; 30.1 µM (inactive) in the assay with PC-3; 23.6 µM (inactive) with RPMI-8226; 33.4 µM (inactive) in the assay with RXF 393; 56.1 µM (inactive) in the assay on SK-OV-3; 49.2 µM (inactive) in the assay with U-251. Also, the values for the GI50 in the assay with UACC-257 and in the assay with UO-31 were 22.1 µM (inactive) and 12.2 µM (inactive), respectively.

Turning to `COc1ccc2cc(CNCCCN3CCN(CCCNCc4ccc5cc(OC)ccc5c4)CC3)ccc2c1`, the GI50 with BT-549 is 1.78 µM (inactive); in the assay on CAKI-1, 1.78 µM (inactive); with HCC 2998 it was 0.24 µM (active); in the assay on HL-60, 0.24 µM (active); with HOP-92, 1.43 µM (inactive); with HT-29, 0.49 µM (active). The GI50 is 1.72 µM (inactive) in the assay on IGROV-1; 0.789 µM (active) in the assay on KM12; 1.6 µM (inactive) in the assay on M14; 1.35 µM (inactive) with MCF7; 1.72 µM (inactive) in the assay on Malme-3M; 1.63 µM (inactive) with OVCAR-3. Besides, the GI50 with OVCAR-4 is 1.96 µM (inactive); in the assay on PC-3, 0.966 µM (active); in the assay on RPMI-8226 it was 0.276 µM (active); with RXF 393 it was 1.46 µM (inactive); with SK-OV-3, 1.42 µM (inactive); with U-251, 1.75 µM (inactive). Also, the GI50 in the assay on UACC-257 was 2.22 µM (inactive); in the assay on UO-31, 1.76 µM (inactive).

Take `CN1c2ccc(O)c(O)c2-c2cc(O)cc3c2C1CCC3` (stereo not given): the GI50 is 17.3 µM (inactive) in the assay with BT-549; 20.3 µM (inactive) in the assay on CAKI-1; 20.5 µM (inactive) in the assay on HCC 2998; 14.6 µM (inactive) in the assay with HL-60; 13.9 µM (inactive) in the assay on HOP-92; 19.1 µM (inactive) with HT-29. For the same compound, the GI50 in the assay with IGROV-1 was 11.6 µM (inactive); with KM12, 21.4 µM (inactive); in the assay on M14 it was 16.2 µM (inactive); with MCF7, 14.2 µM (inactive); in the assay on Malme-3M, 15.9 µM (inactive); in the assay on OVCAR-3, 4.55 µM (inactive). Moreover, the GI50 in the assay with OVCAR-4 was 13.4 µM (inactive); with PC-3, 19.2 µM (inactive); in the assay on RPMI-8226, 3.31 µM (inactive); with RXF 393 it was 7.23 µM (inactive); in the assay on SK-OV-3, 51.9 µM (inactive); in the assay on U-251 it was 23.4 µM (inactive). Moreover, the figures for the GI50 in the assay on UACC-257 and in the assay with UO-31 were 19.1 µM (inactive) and 13.6 µM (inactive), respectively.

As for `CCCC(=O)Nc1cc(/C=C/C(=O)N2CC(CCl)c3ccc(N)cc32)n(C)c1` (stereo not given), the GI50 in the assay on BT-549 is 0.193 µM (active); in the assay on CAKI-1, 0.0441 µM (active); with HCC 2998, 0.0908 µM (active); in the assay with HL-60 it was 0.206 µM (active); with HOP-92, 0.0964 µM (active); in the assay on HT-29, 0.284 µM (active). Further, the GI50 is 0.229 µM (active) in the assay with IGROV-1; 0.257 µM (active) in the assay with KM12; 0.337 µM (active) in the assay on M14; 0.122 µM (active) in the assay with MCF7; 0.18 µM (active) with Malme-3M; 0.268 µM (active) in the assay on OVCAR-3. The GI50 is 0.188 µM (active) in the assay with OVCAR-4; 0.215 µM (active) in the assay with PC-3; 0.177 µM (active) in the assay with RPMI-8226; 0.0474 µM (active) in the assay on RXF 393; 0.47 µM (active) in the assay with SK-OV-3; 0.324 µM (active) with U-251. The figures for the GI50 with UACC-257 and with UO-31 were 0.195 µM (active) and 0.159 µM (active), respectively.
